Results as given in patent US8519007B2, “Use certain diterpene compounds in the treatment of androgen receptor-associated diseases” (Academia Sinica, priority 2008, dated 2013).

Assays:
22Rv1 cells = test: Colony-forming growth assay; type: cell-based; details: Homo sapiens, 288 h; 22Rv1, 12 days; read-out: IC50 (anti-proliferation potency), colony growth
Method: (§1) FIGS. 3A-C. HDHS affects growth of PCa cells. A, Cell viability of different cell lines treated with vehicle (Ctrl) or indicated concentrations of HDHS for 48 h. The absorbance of the control group was defined as 100%. B, Colony-forming growth of LNCaP and 22Rv1 cells (AR-dependent PCa cells) and PC-3 cells (AR-independent PCa cells) in 24-well multi-dishes with indicated treatments for 12 days. The results were presented as percentage of growth with respect to control treatment of the same cell line. C, Photographs of different PCa cell lines growing on culture plates with designated treatments for […].
(§2) The long-term effect of HDHS on the malignant growth of AR-dependent (22Rv1, and LNCaP) and AR-independent (PC-3) PCa cells was examined by colony-forming growth assay. […] The differential effect was also reflected in the morphology of treated cells.

LNCaP cells [1] = test: Colony-forming growth assay; type: cell-based; details: Homo sapiens, 288 h, 12 days, read-out: IC50 (anti-proliferation potency), colony growth
Method: as §1, §2

PC-3 cells [2] = test: Colony-forming growth assay; type: cell-based; details: Homo sapiens, 288 h; PC-3, 12 days; read-out: IC50 (anti-proliferation potency), colony growth
Method: as §1, §2

LNCaP cells [3] = test: Western blot of G1-associated cyclins, CDKs, CDK inhibitors and Rb phosphorylation; type: cell-based, human; details: 24 h
Description: (§3) The molecular mechanisms for HDHS-induced G0-G1 cell cycle arrest were further assessed by the expression of the cyclins and CDKs that operate in the G1 phase in PCa cells (Malumbres M et al., Nat Rev Cancer 2001; 1:222-31; Massague J. Nature 2004; 432:298-306).

PC-3 cells [4] = test: as above; type: cell-based, human; details: PC-3, compared with LNCaP
Description: as §3

LNCaP cells [5] = test: Apoptosis by nucleosome release (cytoplasmic DNA fragmentation); type: cell-based, human; details: 5-10 μM, 24 h
Method: (§4) FIGS. 4A-B. HDHS induces apoptosis in AR-dependent PCa cells. A, Apoptosis of cytoplasmic DNA fragmentation in different cell lines treated with vehicle or indicated concentrations of HDHS for 24 h. Difference between the indicated pair of treatments was tested for statistic significance as marked. *, P≦0.05; **, P≦0.01. B, Activation of caspases and PARP in HDHS-induced apoptosis of LNCaP cells.
(§5) In light of the increase of sub-G1 populations by HDHS, apoptosis in treated cells was further analyzed via measurement of nucleosome release in PCa cells. […] 22Rv1 cells with AR expression are ablation-resistant but respond to androgen stimulation; HDHS led to their apoptosis.

PC-3 cells [6] = test: as above; type: cell-based, human; details: PC-3, 5-10 μM, 24 h
Method: as §4, §5

## CC(C)c1cc2c(cc1O)[C@@]1(C)CCCC(C)(C)C1=C(O)C2=O [Compound 2, 6,12-dihydroxyabieta-5,8,11,13-tetraen-7-one]
22Rv1 cells
  IC50: 6.3 µM
LNCaP cells [1]
  IC50: 7.5 µM
PC-3 cells [2]
  IC50: 13.2 µM
LNCaP cells [3]; 10 μM
  protein expression of CDK inhibitors p21 and p27: increased
LNCaP cells [3]
  cyclins D1 and E protein: concentration-dependent decrease
  phosphorylation of Rb: markedly decreased
  protein levels of CDK4, CDK6, and CDK2: decreased
PC-3 cells [4]
  changes in cyclins, CDKs, p21, p27 and Rb phosphorylation: at a lower magnitude than in LNCaP cells
LNCaP cells [5]
  apoptosis (nucleosome release): significantly induced
PC-3 cells [6]
  apoptosis (nucleosome release): not in PC-3 cells
